How the values were obtained:
[1] = Pharmacological activity in mice as weight loss agent; assay type: in vivo
Text: Food was provided ad lib.

[2] = biological target: T1, Protein Tyrosine Phosphatase 1B (PTP1B), human truncated form (1-321) (Homo sapiens, UniProt P18031); test: Inhibition of PTP1B, 10-dose IC50 mode, fluorescence readout of enzyme activity; assay type: biochemical; conditions: for HILLSLOPE: 10-dose curve
T1 construct: The enzyme was the human truncated form (1-321), recombinantly produced in E. coli; host or cells: E. coli
T1 sequence (P18031 1-321): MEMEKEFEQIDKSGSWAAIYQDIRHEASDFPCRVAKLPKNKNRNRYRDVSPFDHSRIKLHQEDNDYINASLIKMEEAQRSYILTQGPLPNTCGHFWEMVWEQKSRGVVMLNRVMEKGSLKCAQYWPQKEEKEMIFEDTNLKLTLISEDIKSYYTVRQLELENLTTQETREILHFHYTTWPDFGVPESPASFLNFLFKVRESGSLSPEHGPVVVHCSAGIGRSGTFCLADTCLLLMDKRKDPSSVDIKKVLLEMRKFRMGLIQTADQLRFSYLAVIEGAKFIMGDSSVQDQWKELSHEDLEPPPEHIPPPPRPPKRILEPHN
Description: The enzyme was the human truncated form (1-321), recombinantly produced in E. coli. Fluorescence was measured to monitor enzyme activity.

C. elegans model of PD = conditions: cited from earlier work
[3] = as the dilactate salt; cited from earlier work
mouse models of PD = conditions: several mouse models of PD; cited from earlier work
[4] = Phase 2 trial of oral squalamine (ENT-01): pharmacokinetics; assay type: in vivo, human; conditions: patients of Example 8
Description: PK data were collected on the 10 patients enrolled in Stage 1 and 10 patients enrolled in Stage 2 to determine the extent of systemic absorption. In Stage 1, PK data were obtained at each visit, pre-medication, at 1, 2, 4, 8 and 24 hours (Table 9). In Stage 2, PK was measured on days 1 and 6 of the randomization period pre-medication, at 1, 2, 4 and 8 hours (Table 10).
The mean Cmax, Tmax and T1/2 and AUC of the squalamine ion following squalamine (ENT-01) oral dosing for Stage 1 patients. The PK analyses are only approximate, as the lower limit of the validated concentration range was 10 ng/ml; most of the measured concentrations fell below that value. The mean Cmax, Tmax and T1/2 and AUC of the squalamine ion following squalamine (ENT-01) oral dosing for Stage 2 patients. The PK analyses are only approximate, as the lower limit of the validated concentration range was 0.5 ng/ml.

[5] = single and repeat intravenous administration, dilactate salt, alone or in combination; cited from earlier work
[6] = i.p. 10 mg/kg on days 0, 2, 4, 6, 8 and 10, N=3

Row | Compound | HILLSLOPE [2] | % Activity ([2]; Conc 1.00E−04 M) [%] | Slope (signal/min) ([2]; Conc 1.00E−04 M) | % Activity ([2]; Conc 1.11E−05 M) [%] | Slope (signal/min) ([2]; Conc 1.11E−05 M) | Slope (signal/min) ([2]; Conc 1.23E−06 M) | Slope (signal/min) ([2]; Conc 1.37E−07 M) | Slope (signal/min) ([2]; Conc 1.52E−08 M) | Slope (signal/min) ([2]; Conc 3.33E−05 M) | Slope (signal/min) ([2]; Conc 3.70E−06 M) | Slope (signal/min) ([2]; Conc 4.12E−07 M) | Slope (signal/min) ([2]; Conc 4.57E−08 M) | Slope (signal/min) ([2]; Conc 5.08E−09 M) | also measured
1 | [2H]C([2H])([2H])C([2H])(C(CC[C@@H](C)[C@H]1CCC2C3C(CC[C@@]21C)[C@@]1(C)CC[C@H](NCCCNCCCCNCCCN)C[C@@H]1C[C@H]3O)OS(=O)(=O)O)C([2H])([2H])[2H] (some centres unmarked) [Compound D7-1436] | −2.50 | −0.37 | −161 | −0.74 | −319 | 34760 | 40150 | 43819 | −362 | 8429 | 41755 | 43697 | 44655 | body weight reached ([1]; i.p. 10 mg/kg on days 0, 2, 4, 6, 8 and 10, by day 16, N=3): about 45 % of the starting weight; condition of the animals ([1]; i.p. 10 mg/kg on days 0, 2, 4, 6, 8 and 10, day 16): appeared moribund and were euthanized; potency as compared with MSI-1436 ([1]; weight loss, i.p. 10 mg/kg): increased potency; % Activity ([2]; Conc 1.23E−06 M): 80.63%; % Activity ([2]; Conc 1.37E−07 M): 93.14%; % Activity ([2]; Conc 1.52E−08 M): 101.65%; % Activity ([2]; Conc 3.33E−05 M): −0.84%; % Activity ([2]; Conc 3.70E−06 M): 19.55%; % Activity ([2]; Conc 4.12E−07 M): 96.86%; % Activity ([2]; Conc 4.57E−08 M): 101.36%; % Activity ([2]; Conc 5.08E−09 M): 103.59%
2 | CC(C)[C@@H](CC[C@@H](C)C1CCC2C3C(CC[C@@]21C)[C@@]1(C)CC[C@H](NCCCNCCCCNCCCN)C[C@@H]1C[C@H]3O)OS(=O)(=O)O (some centres unmarked) [MSI-1436, reference compound] | −2.19 | −0.16 | −68 | 0.68 | 292 | 37260 | 40137 | 44021 | −440 | 16431 | 39959 | 42717 | 43513 | nadir in weight [1, 6]: ~16 days; recovery to starting weight [1, 6]: 45 days
3 | CC(C)[C@@H](CC[C@@H](C)C1CCC2C3C(CC[C@@]21C)[C@@]1(C)CC[C@H](NCCCNCCCCN)C[C@@H]1C[C@H]3O)OS(=O)(=O)O (stereo partly drawn) [squalamine, 3 beta-N-1-(N-[3-(4-aminobutyl)]-1,3-diaminopropane)-7 alpha,24 zeta-dihydroxy-5 alpha-cholestane 24-sulfate] | – | – | – | – | – | – | – | – | – | – | – | – | – | muscle paralysis (C. elegans model of PD): complete reversal; water solubility [3]: highly water soluble; gastrointestinal dysmotility (mouse models of PD): reverse gastrointestinal dysmotility; systemic absorption following oral administration [4]: not significantly absorbed; well tolerated dose [5]: at least 300 mg/m^2

— US20200262864A1, “DEUTERATED FORMS OF AMINOSTEROLS AND METHODS OF USING THE SAME” (Enterin, Inc., priority 2019, published 2020)
